Like-named read-outs stand apart in the source and are kept apart here.
Assays:
in vitro = settings: monkey
Experimental: (§1) The cells were incubated with test sample dilutions for 72 h and MTT was used as reagent for detection of cytotoxicity. Podophyllotoxin (SIGMA) was used as the standard reference drug.

[1] = test system: Chloroquine-sensitive (3D7) strain of P. falciparum; experiment: Malaria SYBR Green I-based fluorescence (MSF) assay, 3D7 strain; format: cell-based; settings: Plasmodium falciparum
Experimental: (§2) The stock (5 mg/mL or 10 mM) solutions of extracts were prepared in DMSO and required dilutions were made in culture medium.
(§3) Two-fold serial dilutions of test samples were made in 96 well plates and incubated with 1.0% parasitized cell suspension containing 0.8% parasitaemia (Asynchronous culture with more than 80% ring stages). The plates were incubated at 37° C. in CO2 incubator in an atmosphere of 5% CO2 and air mixture. 72 hours later 100 μL of lysis buffer containing 2× concentration of SYBR Green-I (Invitrogen) was added to each well and incubated for one hour at 37° C. The plates were examined at 485±20 nm of excitation and 530±20 nm of emission for relative fluorescence units (RFUs) per well using the fluorescence plate reader (FLX800, BIOTEK). IC50 values were obtained by Logit regression analysis of dose response curves (Singh et al. 2011).

[2] = test system: Chloroquine-resistant (K1) strain of P. falciparum; experiment: Malaria SYBR Green I-based fluorescence (MSF) assay, K1 strain; format: cell-based; settings: Plasmodium falciparum
Experimental: as §2, §3

[3] = test system: Vero cell line (C1008; Monkey kidney fibroblast); experiment: in vitro; settings: 72 h
Experimental: as §1

[4] = test system: chloroquine resistant P. yoelii (N-67); experiment: In vivo evaluation in P. yoelii (N-67) Swiss mice model; settings: positive control, 5 mg/kg ×4 intramuscular; one value per mouse
Experimental: The molecules were tested at 100 mg/kg dose through intraperitoneal route. The mice received infective inoculum containing 1×10^5 parasites on day 0 and then received four doses of test compound on day 0-3 once daily. Five infected mice were used for each molecule and five infected mice were kept as untreated control. Arteether (5 mg/kg, ×4, intramuscular) was used as positive control. Thin blood smear from tail blood of each mouse was prepared on day 4. The blood smears were fixed in methanol, stained with Giemsa's stain and examined under the light microscope (100×oil immersion). At least 10-15 fields per smear were scanned to obtain percent parasitaemia in treated as well as untreated mice. If significant suppression in percent parasitaemia is observed on day 4, the monitoring continues up to day 28.

[5] = P. falciparum 3D7, 72 hours incubation, read-out: IC50 against 3D7
[6] = P. falciparum K1, 72 hours incubation, read-out: IC50 against K1
[7] = 3D7, range given for listed compounds, read-out: IC50 values against 3D7 culture
[8] = K1, range given for listed compounds, read-out: IC50 values against K1 culture

| SMILES | IC50 [1, 5] | IC50 [2, 6] | melting point | IC50 [1, 7] | IC50 [2, 8] | CC50 at 72 h (in vitro) | CC50 [3] | % parasitaemia on day 4 in 5 individual mice [4] |
| --- | --- | --- | --- | --- | --- | --- | --- | --- |
| CCCC(=O)O[C@H](CNC(=O)/C=C/c1ccccc1)c1ccc(OC)c(OC)c1 [Compound 52, (S)-2-cinnamamido-1-(3,4-dimethoxyphenyl)ethyl butyrate] | > 10 µM | > 10 µM |  |  |  |  | 29.9 µM |  |
| COc1ccccc1[C@@H](CNC(=O)/C=C/c1ccccc1)OC(=O)/C=C/c1ccccc1 [Compound 9, (S)-2-cinnamamido-1-(2-methoxyphenyl)ethyl cinnamate] | > 5 µM | > 5 µM | 112 to 114 °C |  |  | 77.8 µM |  |  |
| COc1ccc([C@@H](COC(=O)/C=C/c2ccccc2)NC(=O)/C=C/c2ccccc2)cc1OC [Compound 55, (S)-2-cinnamamido-2-(3,4-dimethoxyphenyl)ethyl cinnamate] | > 10 µM | > 10 µM | 117 to 120 °C |  |  | 55.6 µM |  |  |
| COc1cc(/C=C/C(=O)OC[C@@H](OC(=O)/C=C/c2cc(OC)c(OC)c(OC)c2)c2cc(OC)c(OC)c(OC)c2)cc(OC)c1OC [Compound 57, (S)-1-(3,4,5-trimethoxyphenyl)ethane-1,2-diyl(2E,2′E)-bis(3-(3,4,5-trimethoxyphenyl)acrylate)] | 6.29 µM | 2.23 µM | 61 to 62 °C | 2 to 7 µM | 1.5 to 4 µM | 47.4 µM |  |  |
| COc1ccc([C@@H](CNC(=O)/C=C/c2ccc(O[Si](C)(C)C(C)(C)C)cc2)OC(=O)/C=C/c2ccc(O[Si](C)(C)C(C)(C)C)cc2)cc1OC [Compound 48, (S)-2-((E)-3-(4-((tert-butyldimethylsilyl)oxy)phenyl)acrylamido)-1-(3,4-dimethoxyphenyl)ethyl (E)-3-(4-((tert-butyldimethylsilyl)oxy)phenyl)acrylate] | 7.92 µM | 3.37 µM | 63 to 65 °C |  |  | 40.8 µM |  |  |
| Cc1ccc([C@@H](COC(=O)/C=C/c2ccccc2)OC(=O)/C=C/c2ccccc2)cc1 [Compound 31, (S)-1-(p-tolyl) ethane-1,2-diyl (2E,2′E)-bis(3-phenylacrylate)] | > 5 µM | > 5 µM | 103 to 105 °C |  |  | > 200 µM |  |  |
| O=C(/C=C/c1ccccc1)OC[C@H](OC(=O)/C=C/c1ccccc1)c1ccc2ccccc2c1 [Compound 54, (R)-1-(naphthalen-2-yl)ethane-1,2-diyl (2E,2′E)-bis (3-phenylacrylate)] | > 10 µM | 2.15 µM | 123 to 124 °C |  |  |  | 181 µM |  |
| O=C(/C=C/c1ccccc1)NC[C@@H](OC(=O)/C=C/c1ccccc1)c1ccccc1 [Compound 25, (S)-2-cinnamamido-1-phenylethyl cinnamate] | 3.85 µM | > 10 µM | 181 to 183 °C |  |  | 31.7 µM |  |  |
| CCO[C@H]1O[C@@H]2O[C@@]3(C)CC[C@H]4[C@H](C)CC[C@@H]([C@H]1C)[C@@]24OO3 [Arteether, reference compound] |  |  |  |  |  |  |  | 0.0% |
| O=C(/C=C/c1ccccc1)OC[C@@H](OC(=O)/C=C/c1ccccc1)c1ccccc1 [Compound 27, (S)-1-phenylethane-1,2-diyl (2E,2′E)-bis(3-phenylacrylate)] | > 5 µM |  | 131 to 133 °C |  |  | 39.1 µM |  |  |
| COc1cc([C@H](CNC(=O)/C=C/c2ccccc2)OC(=O)/C=C/c2ccccc2)cc(OC)c1OC [Compound 6, (R)-2-cinnamamido-1-(3,4,5-trimethoxyphenyl)ethyl cinnamate] | > 5 µM |  | 126 to 127 °C |  |  | 5.08 µM |  |  |

Further lines, with some results ahead:

| IC50 [1, 5] | IC50 [2, 6] | melting point | IC50 [1, 7] | IC50 [2, 8] | SMILES | CC50 at 72 h (in vitro) | CC50 [3] | % parasitaemia on day 4 in 5 individual mice [4] |
| --- | --- | --- | --- | --- | --- | --- | --- | --- |
| 6.67 µM | > 10 µM | 129 to 131 °C |  |  | COc1ccc([C@@H](CNC(=O)c2ccccc2)OC(=O)c2ccccc2)cc1OC [Compound 39, (S)-2-benzamido-1-(3,4-dimethoxyphenyl) ethyl benzoate] | 8.16 µM |  |  |
| 6.69 µM | 3.64 µM | 126 to 128 °C | 2 to 7 µM | 1.5 to 4 µM | COc1cc([C@@H](CNC(=O)/C=C/c2ccccc2)OC(=O)/C=C/c2ccccc2)cc(OC)c1OC [Compound 5, (S)-2-cinnamamido-1-(3,4,5-trimethoxyphenyl)ethyl cinnamate] | 66.7 µM |  |  |
| > 10 µM | > 10 µM | 120 to 121 °C |  |  | O=C(/C=C/c1ccccc1)OC[C@@H](OC(=O)/C=C/c1ccccc1)c1ccc2ccccc2c1 [Compound 53, (S)-1-(naphthalen-2-yl)ethane-1,2-diyl (2E,2′E)-bis(3-phenylacrylate)] |  | > 200 µM |  |
| > 10 µM | > 10 µM | 93 to 94 °C |  |  | CCCC(=O)NC[C@@H](OC(=O)/C=C/c1ccccc1)c1ccc(OC)c(OC)c1 [Compound 51, (S)-2-butyramido-1-(3,4-dimethoxyphenyl)ethyl cinnamate] |  | 42.4 µM |  |
| 5.86 µM | > 10 µM | 77 to 78 °C |  |  | COc1ccc([C@H](CNC(=O)CCc2ccccc2)OC(=O)CCc2ccccc2)cc1OC [Compound 44, (R)-1-(3,4-dimethoxyphenyl)-2-(3-phenylpropanamido)ethyl 3-phenyl propanoate] | 73.2 µM |  |  |
| 4.72 µM | > 10 µM | 183 to 185 °C |  |  | O=C(/C=C/c1ccccc1)NC[C@H](OC(=O)/C=C/c1ccccc1)c1ccccc1 [Compound 26, (R)-2-cinnamamido-1-phenylethyl cinnamate] | 63.9 µM |  |  |
| 6.97 µM | > 10 µM | 139 to 141 °C |  |  | Cc1ccc([C@H](CNC(=O)/C=C/c2ccccc2)OC(=O)/C=C/c2ccccc2)cc1 [Compound 30, (R)-2-cinnamamido-1-(p-tolyl) ethyl cinnamate] | 49.4 µM |  |  |
| > 5 µM | > 5 µM | 186 to 190 °C |  |  | O=C(/C=C/c1ccccc1)NC[C@@H](OC(=O)/C=C/c1ccccc1)c1ccc2c(c1)OCO2 [Compound 33, (S)-1-(benzo[d][1,3]dioxol-5-yl)-2-cinnamamidoethyl cinnamate] | 190 µM |  |  |
| > 5 µM | > 5 µM | 105 to 107 °C |  |  | COc1cccc([C@H](CNC(=O)/C=C/c2ccccc2)OC(=O)/C=C/c2ccccc2)c1OC [Compound 22, (R)-2-cinnamamido-1-(2,3-dimethoxyphenyl)ethyl cinnamate] | 194 µM |  |  |
| > 10 µM | > 10 µM | 112 to 114 °C |  |  | COc1ccc([C@@H](CNC(=O)CCc2ccccc2)OC(=O)/C=C/c2ccccc2)cc1OC [Compound 50, (S)-1-(3,4-dimethoxyphenyl)-2-(3-phenylpropanamido)ethylcinnamate] |  | 44.3 µM |  |
| 2.86 µM | > 10 µM | 82 to 84 °C |  |  | COc1ccc([C@@H](CNC(=O)CCc2ccccc2)OC(=O)CCc2ccccc2)cc1OC [Compound 43, (S)-1-(3,4-dimethoxyphenyl)-2-(3-phenylpropanamido)ethyl 3-phenyl propanoate] | 39.3 µM |  |  |
| 3.66 µM | > 10 µM | 128 to 130 °C |  |  | COc1ccc([C@H](CNC(=O)c2ccccc2)OC(=O)c2ccccc2)cc1OC [Compound 40, (R)-2-benzamido-1-(3,4-dimethoxyphenyl) ethyl benzoate] | 104 µM |  |  |
| 6.77 µM | > 10 µM | 139 to 140 °C |  |  | Cc1ccc([C@@H](CNC(=O)/C=C/c2ccccc2)OC(=O)/C=C/c2ccccc2)cc1 [Compound 29, (S)-2-cinnamamido-1-(p-tolyl) ethyl cinnamate] | 141 µM |  |  |
| > 10 µM | > 10 µM | 101 to 103 °C |  |  | COc1ccc([C@@H](CNC(=O)/C=C/c2ccccc2)OC(=O)CCc2ccccc2)cc1OC [Compound 49, (S)-2-cinnamamido-1-(3,4-dimethoxyphenyl)ethyl 3-phenylpropanoate] |  | 36.9 µM |  |

Reference: US10519098B2, “Aromatic derivatives as anti-malarial” (Council of Scientific & Industrial Research, priority 2014, dated 2019)
